The values below come from PMC11126936, “Reactivating Hippo by drug compounds to suppress gastric cancer and enhance chemotherapy sensitivity” (The Journal of Biological Chemistry, 2024).

Read-outs that look alike come from different tables or passages of the source. Bounds are passed on as bounds.

Data set [1] addresses T1, PP2Aa–STRN3 interaction (Homo sapiens, UniProt P30153). As to the kind of experiment: GST pulldown assay, PP2Aa–STRN3. It counts as binding. Also noted: GST; SUMO; made in house; host or cells: E. coli BL21 Codon plus (DE3). The note with it: recombinant GST-PP2Aa and His-Sumo-STRN3; up to 10 μM compound.
Target sequence in this assay (P30153 8-589): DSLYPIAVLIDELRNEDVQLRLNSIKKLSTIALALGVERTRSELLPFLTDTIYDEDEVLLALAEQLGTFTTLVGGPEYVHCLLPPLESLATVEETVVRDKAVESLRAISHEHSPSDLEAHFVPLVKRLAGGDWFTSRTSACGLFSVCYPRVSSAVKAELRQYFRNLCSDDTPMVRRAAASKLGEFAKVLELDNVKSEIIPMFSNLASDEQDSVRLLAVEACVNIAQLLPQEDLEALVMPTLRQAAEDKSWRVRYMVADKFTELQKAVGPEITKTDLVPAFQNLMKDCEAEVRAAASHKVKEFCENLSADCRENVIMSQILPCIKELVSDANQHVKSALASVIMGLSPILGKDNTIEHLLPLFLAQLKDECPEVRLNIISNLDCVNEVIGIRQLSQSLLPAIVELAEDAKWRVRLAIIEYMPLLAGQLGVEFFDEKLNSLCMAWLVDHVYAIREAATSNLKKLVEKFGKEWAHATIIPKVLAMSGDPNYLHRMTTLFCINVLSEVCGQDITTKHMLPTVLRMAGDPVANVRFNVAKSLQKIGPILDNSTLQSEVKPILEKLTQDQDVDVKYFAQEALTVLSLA
For data set [2], the target named is T1, PP2Aa–STRN3 interaction. As to the kind of experiment: Co-IP of HA-PP2Aa and Flag-STRN3 in HEK293A cells. Format: cell-based. Also noted: expressed in transfected cells; host or cells: HEK293A.
Target sequence in this assay (P30153 whole entry): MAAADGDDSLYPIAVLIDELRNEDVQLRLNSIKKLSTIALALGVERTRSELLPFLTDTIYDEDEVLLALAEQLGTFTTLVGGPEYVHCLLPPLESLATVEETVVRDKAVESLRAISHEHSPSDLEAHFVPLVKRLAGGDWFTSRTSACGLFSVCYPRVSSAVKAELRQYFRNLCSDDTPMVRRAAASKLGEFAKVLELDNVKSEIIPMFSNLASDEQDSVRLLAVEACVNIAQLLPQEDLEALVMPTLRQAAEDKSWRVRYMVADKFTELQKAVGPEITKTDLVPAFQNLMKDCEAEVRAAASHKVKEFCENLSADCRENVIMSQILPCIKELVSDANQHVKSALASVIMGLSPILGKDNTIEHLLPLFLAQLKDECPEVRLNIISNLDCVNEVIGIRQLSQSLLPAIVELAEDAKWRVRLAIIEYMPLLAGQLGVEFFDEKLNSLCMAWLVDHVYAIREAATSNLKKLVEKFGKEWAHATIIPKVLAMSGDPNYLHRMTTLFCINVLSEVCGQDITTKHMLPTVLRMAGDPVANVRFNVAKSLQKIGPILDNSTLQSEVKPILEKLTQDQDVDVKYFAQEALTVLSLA
For the next data set, the system named is zebrafish larvae. The note with it: ref [65], [66]; cited from earlier work.
The next data set concerns YAP phosphorylation. Conditions: HEK293A, Flag-YAP.
In another data set the test system is GES-1 cells. As to the kind of experiment: Cell viability of non-cancerous gastric epithelial GES-1 cells. Conditions: Homo sapiens, GES1, read-out: IC50 value, GES-1 cells.
For the next data set, the target named is T2, STRN3 (Homo sapiens, UniProt Q13033).
T2 construct: His-SUMO; made in house; host or cells: E. coli BL21 Codon plus (DE3)
T2 sequence (Q13033 64-145): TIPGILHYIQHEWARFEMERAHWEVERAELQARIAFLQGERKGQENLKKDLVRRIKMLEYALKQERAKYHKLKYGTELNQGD
As to the kind of experiment: ITC binding to STRN3. The procedure:
(§1) ITC experiments were conducted using an iTC200 instrument from Microcal at 25 °C. […] Each titration included a single […] injection followed by 19 sequential injections of […] aliquots, with a spacing of 300 s between the injections, and stirring at 1000 rpm. Data were analyzed using the ITC data analysis software (MicroCal Software, https://www.malvernpanalytical.com/en/support/product-support/software/microcal-peaq-itc-analysis-software-v141).

The next data set deals with mice. The note with it: ref [65]; cited from earlier work.
The target in data set [3] is T3, PP2Aa (Homo sapiens, UniProt P30153).
T3 construct: GST; made in house; host or cells: E. coli BL21 Codon plus (DE3)
T3 sequence (P30153 8-589): as the sequence (P30153 8-589) above
As to the kind of experiment: MST assay, binding to PP2Aa.

In the next data set the test system is AGS cells xenograft. As to the kind of experiment: AGS xenograft tumor model. Conditions: intratumoral injection, five consecutive days, vs control.
For data set [4], the system named is HGC-27 cells. The data set can be described thus: Colony formation assay in HGC-27 cells. Conditions: about 2 weeks.
Method: After about 2 weeks incubation, cell colonies were identified by their being stained with 1% crystal violet dye. And colonies with diameters of >1 mm were counted.
The target in data set [5] is T3, PP2Aa. The data set can be described thus: ITC binding to PP2Aa. Conditions: 25 °C. How it is done: as §1
The test system of data set [6] is HGC-27 cells. The data set can be described thus: Cell viability assay in HGC-27 cells. Format: cell-based, human. Conditions: for IC50: cell viability, read-out: IC50 values in HGC-27 cells.
The subject of the next data set is MNNG-induced GC tumors. As to the kind of experiment: MNNG-induced GC mouse model. Conditions: 50 mg/kg per day DSF vs control mice.
In data set [7] the test system is YAP target gene CTGF in HGC-27 cells. The data set can be described thus: CTGF mRNA (qPCR) in HGC-27 cells. The note with it: 48 h.

Method for AGS cells xenograft: Briefly, healthy male 615 mice were maintained in pathogen-free conditions. Mice were first injected with 2 × 10^6 AGS cells/per mouse into their flanks to induce tumor formation. Once the tumor volume reached about 100 mm^3, mice were injected intratumorally with indicted inhibitors for five successive days. Two weeks later, the mice were euthanized and then their tumors were harvested and weighed.

For `CCN(CC)C(=S)SSC(=S)N(CC)CC` [DSF, disulfiram], the “PP2Aa–STRN3 association in GST pulldown” value at PP2Aa–STRN3 interaction [1] is on record as “dramatically reduced”. Moreover, at PP2Aa–STRN3 interaction [2], the “PP2Aa–STRN3 interaction in Co-IP” value is given as “dramatically decreased”. For the same molecule, the “adverse effects in zebrafish larvae” value with zebrafish larvae is “adverse effects”. In the data set on YAP phosphorylation, the “level of pYAP^Ser” value is listed as “dose-dependently increased”. Further, in the data set with YAP phosphorylation, the “level of pYAP^Tyr” value is given as “marginal effect”. The figures for the IC50 in the data set with GES-1 cells, in the data set on HGC-27 cells [6] (listed as Disulfiram) and with HGC-27 cells [6] were 1290 nM, 390 nM and < 5000 nM, respectively. Moreover, the “binding to STRN3” value at STRN3 is on record as “can specifically bind to PP2Aa but not STRN3”. For the same molecule, the “in vivo side effects in mice” value in the data set on mice is “reduction of body weight and glucose excretion”. Besides, the dissociation constant (Kd) on PP2Aa [3] was 4.9 µM; on PP2Aa [5], 4.1 µM. Further, the “effect on binding of STRN3 to PP2Aa” value on PP2Aa [3] (compound added) is given as “readily disrupted the binding of STRN3 to PP2Aa”. In the data set with AGS cells xenograft, the “tumor weight / tumor growth” value was “modestly lower tumor weights”. For the same molecule, the “colony formation of HGC-27 cells” value with HGC-27 cells [4] is recorded as “significantly inhibited colony formation”. Moreover, the “effect of addition of copper ion on suppression of HGC-27 cell viability by the compound” value in the data set with HGC-27 cells [6] (compound-Cu complex vs compound) was “further dramatically enhanced”. For the same molecule, the “Ctgf expression in tumors (RNA-Scope)” value in the data set with MNNG-induced GC tumors is “sharp decrease”. For the same molecule, the area of tumors result in the data set on MNNG-induced GC tumors is “substantially smaller”. In [7], the “mRNA levels of YAP target gene CTGF” value was “significantly reduced”.

One may read the IC50 as the concentration needed to halve the response being measured. Usually Kd stands for the concentration at which binding is half-saturated.
